Measurements reported in patent US20060069132A1, “Azolecarboxamide herbicides” (priority 2004, published 2006).

Test system: barley cv. Boone
Test: Test I safening of Compound 6 by Harmony Extra Herbicide, pre-/postemergence
Assay type: in vivo, Hordeum vulgare
Experimental: This test evaluated the safening of Compound 6 on barley (Hordeum vulgare L.) cv. ‘Boone’ and wheat (Triticum aestivum L.) cv. ‘Recital’ by Harmony® Extra Herbicide, which comprises 50 wt % thifensulfuron-methyl and 25 wt % tribenuron-methyl. Barley and wheat seeds were planted in pots containing a pasteurized blend of Matapeake soil and sand. For postemergence testing the plants were grown 10 days so the barley seedlings were at the 2-leaf stage and the wheat seedlings were at the 2-3-leaf stage at time of treatment. Preemergence treatments were applied the day after the seeds were planted. Treatments were applied by spraying Compound 6 and/or […] in a non-phytotoxic solvent mixture, using flat fan nozzle and a spray volume of 280 L/ha. The treatments were triply replicated and the results subsequently averaged. The pots were placed on a greenhouse bench using a complete randomized block design except for the first replicate, which was unrandomized. The plants were grown in the greenhouse and watered as needed with a dilute nutrient solution containing 200 ppm of N. Illumination was daylight supplemented by artificial sources to maintain a photoperiod of 14 hours. The temperature was maintained at 23±2° C. during the day and 17±2° C. at night. The effects of the treatments were rated 25 days after preemergence treatment and 15 days after postemergence treatment. The plant response was visually rated in comparison to untreated controls using a scale of 0 to 100, with 0 representing no effect and 100 representing complete plant death.
Colby's Equation was used to calculate the expected additive herbicidal effect of the mixtures of Compound 6 with Harmony® Extra (i.e. a 2:1 mixture by weight of thifensulfuron-methyl and tribenuron-methyl). Colby's Equation (Colby, S. R. “Calculating Synergistic and Antagonistic Responses of Herbicide Combinations,” Weeds, 15(1), pp 20-22 (1967)) calculates the expected additive effect of herbicidal mixtures, and for two active ingredients is of the form: Pa+b=Pa+Pb−(PaPb/100) wherein • Pa+b is the percentage effect of the mixture expected from additive contribution of the individual components, • Pa is the observed percentage effect of the first active ingredient at the same use rate as in the mixture, and • Pb is the observed percentage effect of the second active ingredient at the same use rate as in the mixture.
The results and additive effects expected from Colby's Equation for the preemergence test are listed in Table I1, and the results and additive effects expected from Colby's Equation for the postemergence test are listed in Table I2.

Q: What does the source list for `CCn1nc(C(C)(C)C)cc1C(=O)Nc1cc(C(=O)N(C)C)ccc1F` [Compound 6, N-[5-[(dimethylamino)carbonyl]-2-fluorophenyl]-3-(1,1-dimethylethyl)-1-ethyl-1H-pyrazole-5-carboxamide]?
A: Barley Observed effect (postemergence, Compound 6 16, thifensulfuron-methyl 0, tribenuron-methyl 0 g a.i./ha): 47; Barley Observed effect (postemergence, Compound 6 31, thifensulfuron-methyl 0, tribenuron-methyl 0 g a.i./ha): 73; Barley Observed effect (preemergence, Compound 6 16, thifensulfuron-methyl 0, tribenuron-methyl 0 g a.i./ha): 35; Barley Observed effect (preemergence, Compound 6 31, thifensulfuron-methyl 0, tribenuron-methyl 0 g a.i./ha): 68
